According to patent publication US20220324815A1, “2-PHENOXY-PYRIMIDINE DERIVATIVES AS HERBICIDAL COMPOUNDS” (SYNGENTA CROP PROTECTION AG, priority 2019, published 2022):

Experiments:
Assay type in all cases: in vivo
Conditions in all cases: 250 g/ha unless otherwise stated, evaluated after 13 days, five-point scale
[1] = tested on: Amaranthus retoflexus (AMARE); assay: Test 1 glasshouse herbicide test, post-emergence application (Table B1)
Protocol: (§1) Seeds of a variety of test species are sown in standard soil in pots (Lolium perenne (LOLPE), Solanum nigrum (SOLNI), Amaranthus retoflexus (AMARE), Setaria faberi (SETFA), Echinochloa crus-galli (ECHCG) and Ipomoea hederacea (IPOHE)). After cultivation for one day (pre-emergence) or after 8 days cultivation (post-emergence) under controlled conditions in a glasshouse (at 24/16° C., day/night; 14 hours light; 65% humidity), the plants are sprayed with an aqueous spray solution derived from the formulation of the technical active ingredient in acetone/water (50:50) solution containing 0.5% Tween 20 (polyoxyethelyene sorbitan monolaurate, CAS RN 9005-64-5). Compounds are applied at 250 g/ha unless otherwise stated. The test plants are then grown in a glasshouse under controlled conditions in a glasshouse (at 24/16° C., day/night; 14 hours light; 65% humidity) and watered twice daily. After 13 days for pre and post-emergence, the test is evaluated for the percentage damage caused to the plant. The biological activities (% phytotoxicity) are shown in Tables B1 and B2 below using a five-point scale (5=81 to 100%; 4=61 to 80%; 3=41 to 60%; 2=21 to 40%; 1=0 to 20%).

[2] = tested on: Echinochloa crus-galli (ECHCG); assay: as above
Protocol: as §1

[3] = tested on: Ipomoea hederacea (IPOHE); assay: as above
Protocol: as §1

Setaria faberi (SETFA) [4] = assay: as above
Protocol: as §1

[5] = tested on: Amaranthus retoflexus (AMARE); assay: Test 1 glasshouse herbicide test, pre-emergence application (Table B2)
Protocol: as §1

[6] = tested on: Echinochloa crus-galli (ECHCG); assay: as above
Protocol: as §1

[7] = tested on: Ipomoea hederacea (IPOHE); assay: as above
Protocol: as §1

Setaria faberi (SETFA) [8] = assay: as above
Protocol: as §1

Row | SMILES | % phytotoxicity AMARE, post-emergence application [1] | % phytotoxicity ECHCG, post-emergence application [2] | % phytotoxicity IPOHE, post-emergence application [3] | % phytotoxicity SETFA, post-emergence application (Setaria faberi (SETFA) [4]) | % phytotoxicity AMARE, pre-emergence application [5] | % phytotoxicity ECHCG, pre-emergence application [6] | % phytotoxicity IPOHE, pre-emergence application [7] | % phytotoxicity SETFA, pre-emergence application (Setaria faberi (SETFA) [8])
1 | CCC(C)Sc1ccccc1Oc1ncc(Cl)cn1 (racemic) [Compound A65] | 1 (1=0 to 20%) | 4 (4=61 to 80%) | 3 (3=41 to 60%) | 3 (3=41 to 60%) | 3 (3=41 to 60%) | 4 (4=61 to 80%) | 1 (1=0 to 20%) | 4 (4=61 to 80%)
2 | CCCC(C)CSc1ccccc1Oc1ncc(Cl)cn1 (racemic) [Compound A69] | 4 (4=61 to 80%) | 4 (4=61 to 80%) | 1 (1=0 to 20%) | 2 (2=21 to 40%) | 1 (1=0 to 20%) | 3 (3=41 to 60%) | 1 (1=0 to 20%) | 4 (4=61 to 80%)
3 | CCCC(C)CS(=O)(=O)c1ccccc1Oc1ncc(Cl)cn1 (racemic) [Compound A74] | 3 (3=41 to 60%) | 1 (1=0 to 20%) | 1 (1=0 to 20%) | 1 (1=0 to 20%) | 1 (1=0 to 20%) | 1 (1=0 to 20%) | 1 (1=0 to 20%) | 1 (1=0 to 20%)
4 | CCCCS(=O)(=O)c1ccccc1Oc1ncc(Cl)cn1 [Compound A20] | 2 (2=21 to 40%) | 2 (2=21 to 40%) | 1 (1=0 to 20%) | 3 (3=41 to 60%) | 3 (3=41 to 60%) | 4 (4=61 to 80%) | 1 (1=0 to 20%) | 4 (4=61 to 80%)
5 | CCCCSc1ccccc1Oc1ncc(Cl)cn1 [Compound A21] | 4 (4=61 to 80%) | 4 (4=61 to 80%) | 3 (3=41 to 60%) | 4 (4=61 to 80%) | 4 (4=61 to 80%) | 5 (5=81 to 100%) | 2 (2=21 to 40%) | 5 (5=81 to 100%)
6 | CCCC[S+]([O-])c1ccccc1Oc1ncc(Cl)cn1 (centres unmarked) [Compound A22] | 3 (3=41 to 60%) | 4 (4=61 to 80%) | 2 (2=21 to 40%) | 4 (4=61 to 80%) | 4 (4=61 to 80%) | 5 (5=81 to 100%) | 5 (5=81 to 100%) | 5 (5=81 to 100%)
7 | CCCC(C)Sc1ccccc1Oc1ncc(Cl)cn1 (centres unmarked) [Compound A33] | 3 (3=41 to 60%) | 2 (2=21 to 40%) | 1 (1=0 to 20%) | 2 (2=21 to 40%) | 1 (1=0 to 20%) | 1 (1=0 to 20%) | 1 (1=0 to 20%) | 3 (3=41 to 60%)
8 | N#Cc1ccc(CSc2ccccc2Oc2ncc(Cl)cn2)cc1 [Compound A36] | 5 (5=81 to 100%) | 3 (3=41 to 60%) | 3 (3=41 to 60%) | 4 (4=61 to 80%) | 5 (5=81 to 100%) | 4 (4=61 to 80%) | 2 (2=21 to 40%) | 5 (5=81 to 100%)
9 | Cl/C=C/CSc1ccccc1Oc1ncc(Cl)cn1 [Compound A37] | 4 (4=61 to 80%) | 2 (2=21 to 40%) | 2 (2=21 to 40%) | 2 (2=21 to 40%) | 4 (4=61 to 80%) | 4 (4=61 to 80%) | 1 (1=0 to 20%) | 3 (3=41 to 60%)
10 | O=S(=O)(C/C=C/Cl)c1ccccc1Oc1ncc(Cl)cn1 [Compound A38] | 2 (2=21 to 40%) | 1 (1=0 to 20%) | 3 (3=41 to 60%) | 1 (1=0 to 20%) | 2 (2=21 to 40%) | 1 (1=0 to 20%) | 1 (1=0 to 20%) | 1 (1=0 to 20%)
11 | N#Cc1cccc(Oc2ncc(Cl)cn2)c1SCCCCC(F)(F)F [Compound A39] | 5 (5=81 to 100%) | 5 (5=81 to 100%) | 3 (3=41 to 60%) | 5 (5=81 to 100%) | 5 (5=81 to 100%) | 5 (5=81 to 100%) | 2 (2=21 to 40%) | 5 (5=81 to 100%)
12 | O=S(=O)(CC(F)(F)F)c1ccccc1Oc1ncc(Cl)cn1 [Compound A78] |  |  |  |  | 3 (3=41 to 60%) | 1 (1=0 to 20%) | 1 (1=0 to 20%) | 1 (1=0 to 20%)
